Assay results published in the supplement of paper PMC10307832.

Columns and labels:
Test in all cases: relative viability (nuclei count vs DMSO), 5 days (fraction); higher = more cells survive
MLN4924 + Palbociclib = compound: NS(=O)(=O)OC[C@@H]1C[C@@H](n2ccc3c(N[C@H]4CCc5ccccc54)ncnc32)C[C@@H]1O [MLN4924] + CC(=O)c1c(C)c2cnc(Nc3ccc(N4CCNCC4)cn3)nc2n(C2CCCC2)c1=O [Palbociclib] (partner 0.5 µM)
Outline: (§1)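 Cells from lung cancer lines were seeded into 1536-well plates and, one day later, dosed by pin tool. Treatments were either a single drug or a fixed dose of an anchor drug with five library-drug doses (not always all listed) in √10 steps. After 5 days, nuclei were stained in a one-step fixation (final 0.05% Triton X-100, 1% formaldehyde, 1 ug/ml Hoechst) and counted on 4× images, and relative viability is the treated-to-vehicle nuclei ratio, as the median of duplicate plates.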

Carboplatin + AZD7762 = compound: C1CC(C1)(C(=O)O)C(=O)O.[NH2-].[NH2-].[Pt+2] [Carboplatin] + NC(=O)Nc1cc(-c2cccc(F)c2)sc1C(=O)N[C@H]1CCCNC1 [AZD7762] (partner 0.2 µM)
Outline: as §1

GSK126 + Palbociclib = compound: CC[C@H](C)N1C=C(C2=C(C=C(C=C21)C3=CN=C(C=C3)N4CCNCC4)C(=O)NCC5=C(C=C(NC5=O)C)C)C [GSK126] + CC(=O)c1c(C)c2cnc(Nc3ccc(N4CCNCC4)cn3)nc2n(C2CCCC2)c1=O [Palbociclib] (partner 0.5 µM)
Outline: as §1

GSK126 + Linsitinib = compound: CC[C@H](C)N1C=C(C2=C(C=C(C=C21)C3=CN=C(C=C3)N4CCNCC4)C(=O)NCC5=C(C=C(NC5=O)C)C)C [GSK126] + C[C@]1(O)C[C@@H](c2nc(-c3ccc4ccc(-c5ccccc5)nc4c3)c3c(N)nccn32)C1 [Linsitinib] (partner 1 µM)
Outline: as §1

Cell Line	relative viability (MLN4924 + Palbociclib; first compound 0.04 µM)	relative viability (MLN4924 + Palbociclib; first compound 0.1265 µM)	relative viability (MLN4924 + Palbociclib; first compound 0.4 µM)	relative viability (MLN4924 + Palbociclib; first compound 1.265 µM)	relative viability (MLN4924 + Palbociclib; first compound 4 µM)	relative viability (Carboplatin + AZD7762; first compound 0.08 µM)	relative viability (Carboplatin + AZD7762; first compound 0.253 µM)	relative viability (Carboplatin + AZD7762; first compound 0.8 µM)	relative viability (Carboplatin + AZD7762; first compound 2.53 µM)	relative viability (Carboplatin + AZD7762; first compound 8 µM)	relative viability (GSK126 + Palbociclib; first compound 0.08 µM)	relative viability (GSK126 + Palbociclib; first compound 0.253 µM)	relative viability (GSK126 + Palbociclib; first compound 0.8 µM)	relative viability (GSK126 + Palbociclib; first compound 2.53 µM)	relative viability (GSK126 + Palbociclib; first compound 8 µM)	relative viability (GSK126 + Linsitinib; first compound 0.08 µM)	relative viability (GSK126 + Linsitinib; first compound 0.253 µM)	relative viability (GSK126 + Linsitinib; first compound 0.8 µM)	relative viability (GSK126 + Linsitinib; first compound 2.53 µM)	relative viability (GSK126 + Linsitinib; first compound 8 µM)
NCI-H1944	0.374	0.371	0.366	0.197	0.178	0.616	0.5	0.584	0.559	0.354	0.407	0.334	0.332	0.36	0.352	1.48	1.18	1.15	1.22	1.33
NCI-H1975	0.549	0.696	0.707	0.557	0.231	0.868	0.746	0.679	0.742	0.691	0.633	0.591	0.636	0.561	0.627	1.02	1.01	0.983	0.96	0.987
NCI-H1993	0.792	0.428	0.422	0.362	0.377	0.973	0.899	0.864	0.871	0.695	0.751	0.605	0.606	0.797	0.632	0.827	0.713	0.728	0.752	0.734
NCI-H2085	0.489	0.505	0.587	0.556	0.416	1.02	1.01	0.973	0.995	0.909	0.477	0.456	0.466	0.453	0.47	0.903	0.774	1.02	0.89	1.02
NCI-H2087	0.184	0.184	0.19	0.0803	0.093	1.38	1.48	1.2	1.12	0.939	0.217	0.215	0.191	0.212	0.206	0.979	0.942	0.931	0.885	0.967
NCI-H2126	0.403	0.424	0.397	0.327	0.237	0.972	1.06	1.05	1.03	0.931	0.343	0.359	0.327	0.39	0.354	0.759	0.732	0.725	0.721	0.713
NCI-H2347	0.426	0.46	0.399	0.312	0.339	0.837	0.741	0.805	0.752	0.798	0.46	0.385	0.469	0.422	0.439	1.04	0.943	0.916	0.885	0.965
NCI-H2405	0.516	0.456	0.41	0.22	0.252	0.832	0.757	0.757	0.646	0.454	0.586	0.507	0.537	0.557	0.523	1.02	0.829	0.876	1	0.927
NCI-H3122	0.162	0.0893	0.129	0.0849	0.0684	1.04	1.01	0.946	0.974	0.885	0.225	0.181	0.181	0.183	0.187	1.03	0.998	0.86	1.05	1.04
PC-3 [JPC-3]	0.556	0.53	0.373	0.346	0.46	1.04	0.732	0.836	0.706	0.553	0.516	0.565	0.565	0.488	0.485	1.01	0.977	0.941	0.921	0.958
PC-14	0.463	0.416	0.138	0.0525	0.0516	0.541	0.316	0.361	0.314	0.202	0.517	0.505	0.539	0.566	0.469	0.944	0.994	0.982	0.968	0.954
RERF-LC-KJ	0.875	0.363	0.184	0.152	0.218	1.14	–	1.04	0.995	0.828	1.15	1.27	1.02	1.04	1.09	0.908	0.909	0.852	0.884	0.901
